Experiments:
[1] = test system: Human primary T cells; assay: T cell activation: secreted IL-2; assay type: cell-based; conditions: 48 hours, fold over background normalized to Compound 141A; for IL-2 1 nM: 1 nM compound; for IL-2 10 nM: 10 nM compound; for IL-2 100 nM: 100 nM compound
Protocol: (§1) Human primary T cells were isolated from commercially available frozen peripheral blood mononuclear cells (HemaCare Corporation) or from fresh LeukoPaks (Research Blood Components). T cells were isolated through depletion of non-T cells using negative selection kit according to the manufacturer's protocol (Miltenyi Biotec, Human Pan T Cell Isolation Kit, 130-096-535). Isolated cells were cultured overnight at 37° C. with 5% CO2 and plated at 1×10^5 cells per well in XVivo-15 serum-free media (Lonza, 04-418Q) into 96 well plates coated with anti-CD3 (OKT3) antibody (ThermoFisher, 16-0037-85). To coat the plates for T cell capture, anti-CD3 antibody was diluted in PBS at 10 μg/mL and 100 μl added to each well. Plates were incubated at 4° C. overnight or at 37° C. for 2 hours and washed once with PBS before use. Serial dilutions of each compound were added in duplicates to the T cells to assess their effect on T cell activation. T cells treated with 5 μg/mL of CD28 antibody (ThermoFisher, 16-0289-85) or T cells stimulated by CD3 only were used as a control. Plates were incubated with the Cbl-b inhibitors for 48 hours at 37° C. with 5% CO2, and supernatants were subsequently analyzed for levels of the activation induced secreted cytokines IL-2 or IFN-y (BD Biosciences CBA Flex Beads, 558269, 558270). T cells were additionally stained with anti-CD69 antibody (Invitrogen, 12-0699-42 which labels a T cell activation associated membrane protein to and surface expression was measured by flow cytometry (ThermoFisher Attune NxT).
(§2) To control for natural inter-donor variability in T cell responses intrinsic to using primary human donor derived cells, secreted IL-2 and IFN-y measurements for each test compound were reported as the fold increase of the compound treated levels over background (antiCD3/CD28 treatment only) normalized to the values obtained for Compound 141A. Results for compound treatment-induced changes in CD69 levels are similarly reported as the fold increase due to compound treatment over anti-CD3 stimulated background only, normalized to values obtained for Compound 141A.
Normalized T cell IL-2 responses were sorted into ranges as follows: fold over background values between 1.41 and 1.8: range “X”, between 0.80 and 1.40: range “A”, values between 0.31 and 0.79: range “B” values between 0.10 and 0.30: range “C”, values between 0.01 and 0.09: range “D.”

[2] = test system: Human primary T cells; assay: T cell activation: CD69 surface expression by flow cytometry; assay type: cell-based; conditions: fold over anti-CD3 stimulated background normalized to Compound 141A; for CD69 10 nM: 10 nM compound; for CD69 100 nM: 100 nM compound
Protocol: as §1, §2
Similarly, bins for normalized CD69 levels were sorted into ranges as follows: fold over background values between 1.11 and 1.6: range “X”, values between 0.81 and 1.10: range “A”; values between 0.61 and 0.80: range “B;” values between 0.30 and 0.60: range “C”.

[3] = test system: Human primary T cells; assay: T cell activation: secreted IFN-y; assay type: cell-based; conditions: 48 hours, fold over background normalized to Compound 141A; for IFN-y 1 nM: 1 nM compound; for IFN-y 10 nM: 10 nM compound; for IFN-y 100 nM: 100 nM compound
Protocol: as §1, §2
Normalized T cell IFN-y responses were sorted into ranges as follows: fold over background between 1.10 and 2.00: range “A”, values between 0.31 and 1.00: range “B;” values between 0.10 and 0.30: range “C”, and values between 0.01 and 0.09: range “D.”

[4] = target: Cbl-b (36-427 aa truncated form, N-terminus Avi-tag) (Homo sapiens (Human), UniProt Q13191); assay: Cbl-b binding: TR-FRET displacement of BODIPY-FL probe
Cbl-b (36-427 aa truncated form, N-terminus Avi-tag), sequence (Q13191 36-427): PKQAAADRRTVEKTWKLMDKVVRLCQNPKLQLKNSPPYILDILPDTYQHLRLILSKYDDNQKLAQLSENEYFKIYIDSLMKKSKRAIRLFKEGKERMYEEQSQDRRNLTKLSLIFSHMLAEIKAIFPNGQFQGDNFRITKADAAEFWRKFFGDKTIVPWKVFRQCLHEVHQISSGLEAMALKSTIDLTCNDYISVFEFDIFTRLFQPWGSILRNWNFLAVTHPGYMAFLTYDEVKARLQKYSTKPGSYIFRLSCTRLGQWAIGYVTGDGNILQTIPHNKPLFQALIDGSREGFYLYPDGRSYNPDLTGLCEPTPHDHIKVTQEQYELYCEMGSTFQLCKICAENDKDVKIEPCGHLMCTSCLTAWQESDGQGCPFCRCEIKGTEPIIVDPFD
How it was run: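 IC50 from loss of terbium–BODIPY-FL TR-FRET signal as compounds compete off a fluorescent Cbl-b inhibitor probe (1 uM) for 1 h at RT. Protein: N-Avi-tagged human Cbl-b 36-427 on streptavidin-terbium, 20 mM HEPES pH 7.5 buffer.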

| IC50 [4] [nM] | Compound | IL-2 1 nM [1] | IL-2 10 nM [1] | IL-2 100 nM [1] | CD69 10 nM [2] | CD69 100 nM [2] | IFN-y 1 nM [3] | IFN-y 10 nM [3] | IFN-y 100 nM [3] | CD69 1 nM ([2]; 1 nM compound) |
| --- | --- | --- | --- | --- | --- | --- | --- | --- | --- | --- |
| 1 to 5 | C[C@H]1CCCN(Cc2cc3c(c(C(F)(F)F)c2)CN(c2cc(C4(Cc5nncn5C)COC4)cc(NCC#N)n2)C3=O)C1 [Compound 119, (S)-2-((4-(3-((4-methyl-4H-1,2,4-triazol-3-yl)methyl)oxetan-3-yl)-6-(6-((3-methylpiperidin-1-yl)methyl)-1-oxo-4-(trifluoromethyl)isoindolin-2-yl)pyridin-2-yl)amino)acetonitrile] | C (values between 0.10 and 0.30: range “C”) | B (values between 0.31 and 0.79: range “B”) | B (values between 0.31 and 0.79: range “B”) | B (values between 0.61 and 0.80: range “B;”) | A (values between 0.81 and 1.10: range “A”) | C (values between 0.10 and 0.30: range “C”) | B (values between 0.31 and 1.00: range “B;”) | B (values between 0.31 and 1.00: range “B;”) | – |
| 1 to 5 | C[C@H]1CCCN(Cc2cc3c(c(C(F)(F)F)c2)CN(c2cc(C4(Cc5nncn5C)COC4)cc(OCCOCCOCCOCCNC(=O)CCN4C(=O)C=CC4=O)n2)C3=O)C1 [Compound 201, 3-(2,5-dioxopyrrol-1-yl)-N-{2-[2-(2-{2-[(4-{3-[(4-methyl-1,2,4-triazol-3-yl)methyl]oxetan-3-yl}-6-(6-{[(3S)-3-methylpiperidin-1-yl]methyl}-1-oxo-4-(trifluoromethyl)-3H-isoindol-2-yl)pyridin-2-yl)oxy]ethoxy}ethoxy)ethoxy]ethyl}propanamide] | C (values between 0.10 and 0.30: range “C”) | C (values between 0.10 and 0.30: range “C”) | C (values between 0.10 and 0.30: range “C”) | C (values between 0.30 and 0.60: range “C”) | C (values between 0.30 and 0.60: range “C”) | C (values between 0.10 and 0.30: range “C”) | C (values between 0.10 and 0.30: range “C”) | C (values between 0.10 and 0.30: range “C”) | – |
| 1 to 5 | CSc1cc(CN2CCC[C@H](C)C2)cc2c1CN(c1cc(C3(Cc4nncn4C)COC3)cc(N)n1)C2=O [Compound 173] | D (values between 0.01 and 0.09: range “D.”) | D (values between 0.01 and 0.09: range “D.”) | D (values between 0.01 and 0.09: range “D.”) | C (values between 0.30 and 0.60: range “C”) | C (values between 0.30 and 0.60: range “C”) | C (values between 0.10 and 0.30: range “C”) | B (values between 0.31 and 1.00: range “B;”) | B (values between 0.31 and 1.00: range “B;”) | C (values between 0.30 and 0.60: range “C”) |

| Compound | IC50 [4] [nM] | IL-2 1 nM [1] | IL-2 10 nM [1] | IL-2 100 nM [1] | CD69 10 nM [2] | CD69 100 nM [2] | IFN-y 1 nM [3] | IFN-y 10 nM [3] | IFN-y 100 nM [3] | CD69 1 nM ([2]; 1 nM compound) |
| --- | --- | --- | --- | --- | --- | --- | --- | --- | --- | --- |
| C[C@H]1CCCN(Cc2cc3c(c(C(F)(F)F)c2)CN(c2cc(C4(Cc5nncn5C)COC4)cc(OCCCC#N)n2)C3=O)C1.O=C(O)C(F)(F)F [Compound 122, 4-[(4-{3-[(4-methyl-1,2,4-triazol-3-yl)methyl]oxetan-3-yl}-6-(6-{[(3S)-3-methylpiperidin-1-yl]methyl}-1-oxo-4-(trifluoromethyl)-3H-isoindol-2-yl)pyridin-2-yl)oxy]butanenitrile; trifluoroacetic acid] | 1 to 5 | C (values between 0.10 and 0.30: range “C”) | B (values between 0.31 and 0.79: range “B”) | B (values between 0.31 and 0.79: range “B”) | B (values between 0.61 and 0.80: range “B;”) | A (values between 0.81 and 1.10: range “A”) | C (values between 0.10 and 0.30: range “C”) | B (values between 0.31 and 1.00: range “B;”) | B (values between 0.31 and 1.00: range “B;”) | – |

Reference: patent publication US20250304563A1, “ACTIVATORS OF EFFECTOR T CELLS” (Orum Therapeutics, Inc., priority 2022, published 2025)
